Data reported in patent publication US9493448B2, “Cycloalkane derivatives” (Daiichi Sankyo Company, Limited, priority 2012, dated 2016).

Tests used:
[1] = target: hNav 1.7 (Homo sapiens (Human), UniProt Q15858); experiment: Electrophysiological evaluation, automated patch clamp IonWorks Quattro (Population Patch Clamp mode); assay type: cell-based; conditions: HEK293A cells stably expressing hNav 1.7/β1/β2; response to second depolarization pulse, pre-pulse potential set to V1/2; read-out: hNav1.7 IC50
[2] = test system: mice and rats affected by thermal hyperalgesia; experiment: Thermal hyperalgesia assay; assay type: in vivo; conditions: oral administration, constant dose, against the vehicle treatment group; latency to escape behaviors after thermal stimulation of hind paw;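 further: measurement times set by the study director and not disclosed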

Sequence of hNav 1.7 (Q15858 whole entry): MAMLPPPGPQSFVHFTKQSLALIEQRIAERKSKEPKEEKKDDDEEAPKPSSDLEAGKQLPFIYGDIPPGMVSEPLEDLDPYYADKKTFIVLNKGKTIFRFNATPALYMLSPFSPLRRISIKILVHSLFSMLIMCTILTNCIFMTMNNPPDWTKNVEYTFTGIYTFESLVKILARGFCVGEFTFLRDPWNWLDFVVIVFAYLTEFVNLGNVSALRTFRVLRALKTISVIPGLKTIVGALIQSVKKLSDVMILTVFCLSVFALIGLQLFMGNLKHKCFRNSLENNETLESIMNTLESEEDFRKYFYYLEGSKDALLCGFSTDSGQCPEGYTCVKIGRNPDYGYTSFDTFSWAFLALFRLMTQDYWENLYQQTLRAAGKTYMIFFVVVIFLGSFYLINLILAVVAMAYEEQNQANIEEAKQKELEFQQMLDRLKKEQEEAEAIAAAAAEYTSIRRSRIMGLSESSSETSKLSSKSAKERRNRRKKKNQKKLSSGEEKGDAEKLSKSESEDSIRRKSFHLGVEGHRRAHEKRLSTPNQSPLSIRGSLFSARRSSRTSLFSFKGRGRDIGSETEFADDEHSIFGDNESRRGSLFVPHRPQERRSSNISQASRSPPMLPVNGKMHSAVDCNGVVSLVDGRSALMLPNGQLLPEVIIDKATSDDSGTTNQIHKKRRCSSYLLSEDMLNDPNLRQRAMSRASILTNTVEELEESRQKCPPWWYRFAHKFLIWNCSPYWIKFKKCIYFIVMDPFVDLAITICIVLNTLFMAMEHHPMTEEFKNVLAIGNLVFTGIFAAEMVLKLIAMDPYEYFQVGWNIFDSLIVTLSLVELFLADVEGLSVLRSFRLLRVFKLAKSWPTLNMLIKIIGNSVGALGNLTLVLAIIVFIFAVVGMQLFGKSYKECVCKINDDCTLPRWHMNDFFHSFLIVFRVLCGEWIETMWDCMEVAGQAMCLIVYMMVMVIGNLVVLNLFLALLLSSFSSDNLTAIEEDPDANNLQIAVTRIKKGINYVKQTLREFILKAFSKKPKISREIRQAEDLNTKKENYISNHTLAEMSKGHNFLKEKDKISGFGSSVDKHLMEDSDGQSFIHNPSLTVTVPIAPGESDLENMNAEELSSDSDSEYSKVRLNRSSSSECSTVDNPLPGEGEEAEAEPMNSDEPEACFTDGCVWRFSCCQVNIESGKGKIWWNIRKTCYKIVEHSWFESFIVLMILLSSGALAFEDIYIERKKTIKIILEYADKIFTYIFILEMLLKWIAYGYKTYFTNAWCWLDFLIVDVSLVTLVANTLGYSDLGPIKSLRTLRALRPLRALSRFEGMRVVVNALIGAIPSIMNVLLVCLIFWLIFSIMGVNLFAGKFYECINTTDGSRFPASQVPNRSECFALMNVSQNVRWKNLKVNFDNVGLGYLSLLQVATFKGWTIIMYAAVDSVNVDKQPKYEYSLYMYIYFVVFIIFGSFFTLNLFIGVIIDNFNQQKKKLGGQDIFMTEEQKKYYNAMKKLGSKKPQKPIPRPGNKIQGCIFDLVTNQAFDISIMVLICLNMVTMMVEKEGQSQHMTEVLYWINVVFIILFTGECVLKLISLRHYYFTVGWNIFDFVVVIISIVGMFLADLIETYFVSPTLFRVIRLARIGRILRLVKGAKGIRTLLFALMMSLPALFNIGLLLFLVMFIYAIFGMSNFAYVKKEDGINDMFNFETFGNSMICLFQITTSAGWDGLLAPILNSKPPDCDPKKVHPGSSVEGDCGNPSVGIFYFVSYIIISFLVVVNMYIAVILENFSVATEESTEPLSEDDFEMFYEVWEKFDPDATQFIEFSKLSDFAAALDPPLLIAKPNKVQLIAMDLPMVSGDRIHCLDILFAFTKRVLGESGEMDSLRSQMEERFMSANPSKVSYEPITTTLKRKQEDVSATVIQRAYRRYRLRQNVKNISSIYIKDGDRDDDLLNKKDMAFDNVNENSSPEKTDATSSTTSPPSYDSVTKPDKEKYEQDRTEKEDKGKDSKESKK
Sequence of hNav 1.7 (Q07699 19-218 partner): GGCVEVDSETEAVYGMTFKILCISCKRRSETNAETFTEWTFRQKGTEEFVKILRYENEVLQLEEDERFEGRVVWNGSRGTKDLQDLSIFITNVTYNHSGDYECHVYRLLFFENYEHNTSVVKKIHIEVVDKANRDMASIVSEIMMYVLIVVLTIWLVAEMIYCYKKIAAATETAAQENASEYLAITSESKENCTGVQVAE
Sequence of hNav 1.7 (O60939 30-215 partner): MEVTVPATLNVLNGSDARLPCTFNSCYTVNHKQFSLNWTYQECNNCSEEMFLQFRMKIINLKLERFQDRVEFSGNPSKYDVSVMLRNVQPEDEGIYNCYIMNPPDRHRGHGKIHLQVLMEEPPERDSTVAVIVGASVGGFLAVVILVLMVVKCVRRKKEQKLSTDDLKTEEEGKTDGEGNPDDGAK

| IC50 [1] [nM] | SMILES | Ratio of improving pain score (%) [2] |
| --- | --- | --- |
| 78 | Cn1nccc1[C@H]1CCC[C@@H]1Oc1ccc(S(=O)(=O)Nc2ccnc(F)n2)c(F)c1 (relative stereo) [Example 114, 2-Fluoro-N-(2-fluoropyrimidin-4-yl)-4-{[(1S*,2R*)-2-(1-methyl-1H-pyrazol-5-yl)cyclopentyl]oxy}benzenesulfonamide] | B (“B” when the rate was 31 to 60%) |
| 580 | CCn1nccc1[C@H]1CCC[C@@H]1Oc1ccc(S(=O)(=O)Nc2ccncn2)c(F)c1 (relative stereo) [Example 115, 4-{[(1S*,2R*)-2-(1-Ethyl-1H-pyrazol-5-yl)cyclopentyl]oxy}-2-fluoro-N-(pyrimidin-4-yl)benzenesulfonamide] | A (“A” when the rate was 61 to 100%) |
| 170 | Nc1n[nH]cc1[C@H]1CCCC[C@@H]1Oc1cc(F)c(S(=O)(=O)Nc2cscn2)c(F)c1 (relative stereo) [Example 116, 4-{[(1S*,2R*)-2-(3-Amino-1H-pyrazol-4-yl)cyclohexyl]oxy}-2,6-difluoro-N-(1,3-thiazol-4-yl)benzenesulfonamide] | B (“B” when the rate was 31 to 60%) |
| 270 | CO[C@@H]1C[C@H](Oc2cc(F)c(S(=O)(=O)Nc3ccncn3)cc2F)[C@@H](c2ccnn2C)C1 (relative stereo) [Example 120, 2,5-Difluoro-4-{[(1S*,2R*,4S*)-4-methoxy-2-(1-methyl-1H-pyrazol-5-yl)cyclopentyl]oxy}-N-(pyrimidin-4-yl)benzenesulfonamide] | C (“C” when the rate was 0 to 30%) |
| 200 | Cc1cc(S(=O)(=O)Nc2nncs2)c(F)cc1O[C@H]1CC(F)(F)CC[C@@H]1c1ccnn1C (relative stereo) [Example 125, 4-{[(1S*,2R*)-5,5-Difluoro-2-(1-methyl-1H-pyrazol-5-yl)cyclohexyl]oxy}-2-fluoro-5-methyl-N-(1,3,4-thiadiazol-2-yl)benzenesulfonamide] | C (“C” when the rate was 0 to 30%) |
| 14 | Cc1cc(S(=O)(=O)Nc2ccncn2)c(F)cc1O[C@H]1CCC(F)(F)C[C@@H]1c1ccnn1C (relative stereo) [Example 126, 4-{[(1S*,2R*)-4,4-Difluoro-2-(1-methyl-1H-pyrazol-5-yl)cyclohexyl]oxy}-2-fluoro-5-methyl-N-(pyrimidin-4-yl)benzenesulfonamide] | C (“C” when the rate was 0 to 30%) |
| 120 | Cc1cc(S(=O)(=O)Nc2ccncn2)c(F)cc1O[C@H]1CC(F)(F)CC[C@@H]1c1cn[nH]c1 (relative stereo) [Example 127, 4-{[(1S*,2R*)-5,5-Difluoro-2-(1H-pyrazol-4-yl)cyclohexyl]oxy}-2-fluoro-5-methyl-N-(pyrimidin-4-yl)benzenesulfonamide] | A (“A” when the rate was 61 to 100%) |
| 100 | Cn1nccc1[C@H]1CC(F)(F)CC[C@@H]1Oc1cc(F)c(S(=O)(=O)Nc2ccncn2)c(F)c1 (relative stereo) [Example 129, 4-{[(1S*,2R*)-4,4-Difluoro-2-(1-methyl-1H-pyrazol-5-yl)cyclohexyl]oxy}-2,6-difluoro-N-(pyrimidin-4-yl)benzenesulfonamide] | C (“C” when the rate was 0 to 30%) |
| 59 | Cn1nccc1[C@H]1CC(F)(F)CC[C@@H]1Oc1cc(F)c(S(=O)(=O)Nc2ccncn2)cc1Cl (relative stereo) [Example 131, 5-Chloro-4-{[(1S*,2R*)-4,4-difluoro-2-(1-methyl-1H-pyrazol-5-yl)cyclohexyl]oxy}-2-fluoro-N-(pyrimidin-4-yl)benzenesulfonamide] | C (“C” when the rate was 0 to 30%) |
| 200 | Cn1nccc1[C@H]1CC(F)(F)C[C@@H]1Oc1ccc(S(=O)(=O)Nc2ccncn2)c(F)c1F (relative stereo) [Example 132, 4-{[(1S*,2R*)-4,4-Difluoro-2-(1-methyl-1H-pyrazol-5-yl)cyclopentyl]oxy}-2,3-difluoro-N-(pyrimidin-4-yl)benzenesulfonamide] | A (“A” when the rate was 61 to 100%) |
| 57 | Cc1cc(S(=O)(=O)Nc2ccncn2)c(F)cc1O[C@H]1CC(F)(F)C[C@@H]1c1ccnn1C (relative stereo) [Example 133, 4-{[(1S*,2R*)-4,4-Difluoro-2-(1-methyl-1H-pyrazol-5-yl)cyclopentyl]oxy}-2-fluoro-5-methyl-N-(pyrimidin-4-yl)benzenesulfonamide] | A (“A” when the rate was 61 to 100%) |
| 34 | Cn1nccc1[C@H]1CCC(F)(F)C[C@@H]1Oc1cc(F)c(S(=O)(=O)Nc2nncs2)cc1Cl (relative stereo) [Example 134, 5-Chloro-4-{[(1S*,2R*)-5,5-difluoro-2-(1-methyl-1H-pyrazol-5-yl)cyclohexyl]oxy}-2-fluoro-N-(1,3,4-thiadiazol-2-yl)benzenesulfonamide] | B (“B” when the rate was 31 to 60%) |
| 51 | Cn1nccc1[C@H]1CC(F)(F)C[C@@H]1Oc1cc(F)c(S(=O)(=O)Nc2ccncn2)c(F)c1 (relative stereo) [Example 135, 4-{[(1S*,2R*)-4,4-Difluoro-2-(1-methyl-1H-pyrazol-5-yl)cyclopentyl]oxy}-2,6-difluoro-N-(pyrimidin-4-yl)benzenesulfonamide] | B (“B” when the rate was 31 to 60%) |
| 290 | Cn1nccc1[C@H]1CC(F)(F)C[C@@H]1Oc1ccc(S(=O)(=O)Nc2ccncn2)c(F)c1 (relative stereo) [Example 136, 4-{[(1S*,2R*)-4,4-Difluoro-2-(1-methyl-1H-pyrazol-5-yl)cyclopentyl]oxy}-2-fluoro-N-(pyrimidin-4-yl)benzenesulfonamide] | B (“B” when the rate was 31 to 60%) |
| 24 | Cc1cc(S(=O)(=O)Nc2ccncn2)c(F)cc1O[C@H]1CCC[C@@H]1c1ccn[nH]1 (relative stereo) [Example 138, 2-Fluoro-5-methyl-4-{[(1S*,2R*)-2-(1H-pyrazol-5-yl)cyclopentyl]oxy}-N-(pyrimidin-4-yl)benzenesulfonamide] | B (“B” when the rate was 31 to 60%) |
| 35 | O=S(=O)(Nc1ccncn1)c1c(F)cc(O[C@H]2CCC[C@@H]2c2ccn[nH]2)cc1F (relative stereo) [Example 139, 2,6-Difluoro-4-{[(1S*,2R*)-2-(1H-pyrazol-5-yl)cyclopentyl]oxy}-N-(pyrimidin-4-yl)benzenesulfonamide] | C (“C” when the rate was 0 to 30%) |
| 34 | O=S(=O)(Nc1ccncn1)c1cc(Cl)c(O[C@H]2CCC[C@@H]2c2ccn[nH]2)cc1F (relative stereo) [Example 140, 5-Chloro-2-fluoro-4-{[(1S*,2R*)-2-(1H-pyrazol-5-yl)cyclopentyl]oxy}-N-(pyrimidin-4-yl)benzenesulfonamide] | B (“B” when the rate was 31 to 60%) |
| 58 | Cn1nccc1[C@H]1CCC(F)(F)C[C@@H]1Oc1cc(F)c(S(=O)(=O)Nc2ccncn2)cc1Cl (relative stereo) [Example 141, 5-Chloro-4-{[(1S*,2R*)-5,5-difluoro-2-(1-methyl-1H-pyrazol-5-yl)cyclohexyl]oxy}-2-fluoro-N-(pyrimidin-4-yl)benzenesulfonamide] | A (“A” when the rate was 61 to 100%) |
